According to ChEMBL document CHEMBL5532680, “Identification of a Sonically Activated Degrader of Methionine Adenosyltransferase 2A by an in Silico Approach Assisted with the Hole-Electron Analysis” (J Med Chem, 2024):
Activity calls are given as the source filed them. The rule behind the calls is not given here.

Tests used:
[1] = Induction of ROS generation in PBS at 10 uM incubated for 10 mins under 1.0 MHz, 1.2W/cm2 ultrasound treatment by DCFH staining based fluorescence assay; type: functional
[2] = tested on: HCT-116; test: Induction of apoptosis in MTAP knocked out human HCT-116 cells at 0.1 uM preincubated for 24 hrs followed by sonication for 4 mins by annexin V-FITC/PI staining based flow cytometry analysis relative to control; type: functional, cell-based; details: time 1444.0 min

SMILES | Activity [1] | Activity [2]
CCOc1ncc2cc(-c3ccc4c(c3)C3(CC3)CO4)c(=O)n(-c3ccc(OC(F)F)cc3)c2n1 | Active | 
CCOc1ncc2cc(-c3ccc4nc5n(c4c3)CCN(C(C)=O)C5)c(=O)n(-c3ccc(OC(F)F)cc3)c2n1 | inactive | 
CCOc1ncc2cc(-c3ccc4nc5n(c4c3)CCN(C)C5)c(=O)n(-c3ccc(OC(F)F)cc3)c2n1 | inactive | Active
CCOc1ncc2cc(-c3ccc4c(c3)OCC3(CCN(C)CC3)O4)c(=O)n(-c3ccc(OC(F)F)cc3)c2n1 | Active | 
